PMC2810320 (Journal of the American Chemical Society, 2010)

Tests used:
porcine bc1 complex [1] = molecular target: T1, porcine bc1 complex (Sus scrofa, UniProt P24964); test: Succinate-cytochrome c reductase; assay type: biochemical; conditions: for ΔG ΔGexp.: ΔGexp. = −RTlnKi
porcine bc1 complex [2] = molecular target: T1, porcine bc1 complex; test: Ubiquinol-cytochrome c reductase; assay type: biochemical
[3] = DBH2 and cytochrome c as substrates, pH 6.5, 750 µM lauryl maltoside

T1 sequence (P24964 whole entry, one chain of several): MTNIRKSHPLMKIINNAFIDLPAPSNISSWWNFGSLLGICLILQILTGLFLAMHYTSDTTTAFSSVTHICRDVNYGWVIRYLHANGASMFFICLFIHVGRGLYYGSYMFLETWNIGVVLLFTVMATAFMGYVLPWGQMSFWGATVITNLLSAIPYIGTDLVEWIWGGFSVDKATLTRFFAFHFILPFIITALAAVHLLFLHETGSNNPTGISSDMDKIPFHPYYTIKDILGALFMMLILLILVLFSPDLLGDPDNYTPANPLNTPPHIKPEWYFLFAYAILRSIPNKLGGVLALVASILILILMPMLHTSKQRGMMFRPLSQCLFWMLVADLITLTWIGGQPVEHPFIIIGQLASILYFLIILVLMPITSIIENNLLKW

| Compound | ΔG ΔGexp. (porcine bc1 complex [1]) [kcal/mol] | other results |
| --- | --- | --- |
| CO/C=C(/C(=O)OC)c1ccccc1Oc1cc(Oc2ccccc2C#N)ncn1 [AZ, azoxystrobin, reference compound] | -8.92 | – |
| CO/C=C(/C(=O)OC)c1ccccc1COc1cc(-c2ccccc2O)nn1C [Compound 5a] | -12.19 | – |
| CO/C=C(/C(=O)OC)c1ccccc1COc1cc(-c2cc(C)ccc2O)nn1C [Compound 5b] | -11.62 | – |
| CO/C=C(/C(=O)OC)c1ccccc1COc1cc(-c2cc(Cl)ccc2O)nn1C [Compound 5c] | -12.63 | type of inhibition with respect to substrate cytochrome c (porcine bc1 complex [1]; kobs independent of cytochrome c concentration, 5 nM 5c): non-competitive inhibitor; kon (porcine bc1 complex [1]; pH 7.4, read-out: apparent rate constant A (association rate constant k+0)): 6.31e+06 ± 360000 M⁻¹ s⁻¹; koff (porcine bc1 complex [1]; pH 7.4, read-out: apparent rate constant B (dissociation rate constant k−0)): 0.00358 s⁻¹; fold improved binding affinity compared to AZ (porcine bc1 complex [1]; ratio of Ki values, vs AZ): about 522 fold; Ki (porcine bc1 complex [2]): 2.6 ± 0.1 nM; microscopic inhibition rate constant k+0 (porcine bc1 complex [2]; [3]): 1.85e+06 ± 30000 M⁻¹ s⁻¹; microscopic inhibition rate constant k−0 (porcine bc1 complex [2]; [3]): 0.0048 ± 0.00018 s⁻¹; Ki fold higher than that measured from succinate-cytochrome c reductase activity inhibition (porcine bc1 complex [2]; DBH2 assay Ki vs SCR assay Ki): about 5 fold; type of inhibition with respect to substrate ubiquinol (porcine bc1 complex [2]; varying DBH2 20–115 µM): competitive inhibitor |
| CO/N=C(/C(=O)OC)c1ccccc1COc1cc(-c2ccccc2O)nn1C [Compound 5d] | -11.50 | – |
| CO/C=C(/C(=O)OC)c1ccccc1COc1cc(-c2ccccc2OC)nn1C [Compound 6a] | -10.29 | – |
| CO/C=C(/C(=O)OC)c1ccccc1COc1cc(-c2cc(C)ccc2OC)nn1C [Compound 6b] | -10.52 | – |
| CO/C=C(/C(=O)OC)c1ccccc1COc1cc(-c2ccccc2OCc2ccccc2)nn1C [Compound 6c] | -10.79 | – |
| CO/C=C(/C(=O)OC)c1ccccc1COc1cc(-c2ccccc2OC(=O)c2ccc(F)cc2)nn1C [Compound 6d] | -9.56 | – |
| CO/N=C(/C(=O)OC)c1ccccc1COc1ccccc1C [KM, kresoxim-methyl, reference compound] | -9.28 | – |
| COC(=O)N(OC)c1ccccc1COc1ccn(-c2ccc(Cl)cc2)n1 [PY, pyraclostrobin, reference compound] | -11.59 | – |
